One test relates to Sarcoma 180 solid tumor. The test is described as follows: Antitumor Effect with respect to Sarcoma 180 Solid Tumor Mouse. The class given is in vivo, ICR mice. The note with it: 10 mg/kg in abdominal cavity, 10 days; day 11. As to the method: The antitumor effect test was conducted according to the method of the U. S. National Cancer Institute (NCI) (Cancer Chemotherapy Reports part 3, Vol. 3, 1 (1978)). Cell suspension of Sarcoma 180 cells (mouse sarcoma virus) which was employed as the tumor cell strain for transplant was prepared by diluting the cells in the Hank's solution at 2×10^7 cells/ml concentration ([…]), and ICR mice (10 mice per group) aged 5 weeks were injected subcutaneously with 0.2 ml of the cell suspension at the region of the back. Setting the day of the tumor transplantation as day 0. the mice were administered in the abdominal cavity with the compounds of the invention (Preparation Examples 1 and 37), 5-fluorouracyl, and the solution as the control for 10 days consecutively from day 1. On day 11, the mice were sacrificed, and portions of the solid tumor were removed so that weights thereof were measured. The dosage of each of the test samples was 10 mg/kg.

The test system of another test is CaCo-2 cells. The test is described as follows: Cytostatic Action Test on Various Cells (XTT method). The class given is cell-based. As to the method: The cytostatic measurement of the various cancer cells were conducted according to the method of the U.S. National Cancer Institute (NCI). Adhesive cells such as CaCo-2 and HepG2 were adjusted in each of the specified culture mediums at 0.5×10^5 cells/ml concentration and pipetted into a 96 well-plate (Costar3695) in an amount of 100 μl/well. The cells were cultured under the conditions of at 37° C. in 5% CO2 atmosphere for 24 hours to allow the cell adhesion, and then the numbers of each of the cells were determined by the XTT method to be recorded as the cell number of day 0 (C0days). After that, only the medium solutions were exchanged in the control groups, and culture mediums each containing the test samples adjusted to each of the specified concentrations were exchanged In the test sample dispensing groups, then the cells were cultured under the conditions of at 37° C. in 5% CO2 atmosphere for 72 hours. The numbers of each of the cells were determined by the XTT method to be recorded as the cell number of day 3 (C3days). Further, only the medium solutions were pipetted into the control groups and the test sample administration groups were adjusted to 5×10^5 cells/ml concentrations in each of the specified culture mediums containing the test samples adjusted to each of the specified concentrations, then pipetted into a 96 well-plate (Costar3695) in an amount of 100 μl/well. The cells were cultured under the condition of at 37° C. in 5% CO2 atmosphere for 72 hours, and the number of each of the cells (T3days) were determined in the same manner.
Cell proliferation rate (%) with respect to control groups=[(T3days
-C0days)/(C3days -C0days)]×100 Formula: 5

For test [1], the target named is T1, Human COX-2 (Homo sapiens, UniProt P35354).
T1 construct: endogenous in cells; host or cells: heparinised whole blood of a healthy human donor pretreated with aspirin, stimulated with LPS (own knowledge: COX-2 is induced in monocytes)
T1 sequence (P35354 18-604): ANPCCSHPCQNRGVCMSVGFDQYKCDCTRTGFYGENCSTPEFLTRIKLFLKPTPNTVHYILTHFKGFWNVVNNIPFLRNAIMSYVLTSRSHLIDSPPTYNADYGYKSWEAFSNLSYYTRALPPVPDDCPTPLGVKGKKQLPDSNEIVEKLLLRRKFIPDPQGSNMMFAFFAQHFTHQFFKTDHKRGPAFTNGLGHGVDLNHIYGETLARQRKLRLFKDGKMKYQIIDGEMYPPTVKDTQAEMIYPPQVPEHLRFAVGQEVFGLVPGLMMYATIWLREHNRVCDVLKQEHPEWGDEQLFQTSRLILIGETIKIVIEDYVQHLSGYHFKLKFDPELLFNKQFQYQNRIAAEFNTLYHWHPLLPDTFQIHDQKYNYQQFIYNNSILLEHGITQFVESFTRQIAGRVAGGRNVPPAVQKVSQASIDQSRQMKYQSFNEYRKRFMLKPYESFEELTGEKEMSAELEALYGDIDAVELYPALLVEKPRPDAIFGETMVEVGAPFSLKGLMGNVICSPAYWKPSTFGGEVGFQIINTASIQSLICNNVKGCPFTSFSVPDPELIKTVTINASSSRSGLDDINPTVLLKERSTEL
The test is described as follows: Human COX-2 Inhibitory Activity Test (LPS-induced PGE2 in blood). The class given is cell-based. As to the method:
(§1) COX-1 and COX-2 activities were measured according to the method of Patrignani et al. (J. Pharm. Exp. Ther. Vol. 271, 1705 (1994)).
(2) COX-2 activity was measured in the following procedure. To blood collected from a healthy normal who had taken 330 mg of aspirin 48 hours before the blood collection in order to inhibit the COX-1 activity, 10 unit/ml of sodium heparin was added, and then pipetted into glass test tubes by 1 ml. 10 μg/ml of Lipopolysaccharide (LPS) was added thereto and the plasma obtained by the specified operation was stored at -40° C. until the measurement for the amount of prostaglandin E2 (PGE2). Test samples containing the test samples were treated in the same manner of operation as described above.
(4) The measurement for the PGE2 content was conducted in the following procedure. In a part of 96 well plate coated with goat anti-mouse antibody, 2 wells were alloted respectively to a blank well, Non-specific Binding (NSB) well, Maximum Binding (B0) well, standard wells at seven concentrations of PGE2 (1000 pg/ml) in doubling dilution ranging from 1000-15.6 pg/ml. The rest of the wells were used for the sample measurement. EIA buffer was added to the NSB wells (100 μl) and to the B0 wells (50 μl), respectively. 50 μl of each of the standard dilution was added in an order from thinner to thicker concentrations. Each of the samples was added to the rest of the wells in an amount of 50 μl. Then, 50 μl of PGE2 tracer was added to each of the wells except for blank wells. Further, 50 μl PGE2 monoclonal antibody was added to each of the wells except for the NSB wells and blank wells, then the well plate was covered with a plastic film and the reaction continued at room temperature for 18 hours. When the reaction was terminated, the wells were washed 5 times with a wash buffer. 200 μl of Elman's reagent was added to each of the wells, and then the well plate was covered with a plastic film and developed for 60 minutes in a dark place. The absorbance at 405 nm was measured by an Immuno Reader (NJ-2000, manufactured by Nippon Intermed Co., Ltd.). From the measurement result, %B/B0 was calculated and, applying it to the approximation formula of Hill Plot, the concentration of the samples was determined to be 40 times concentration. The dilution was conducted with an EIA buffer throughout the Test Example 3.

For a further test, the system named is carrageenan footedema. Briefly: Carrageenan Footedema Suppression Test. The class given is in vivo, SD rats. The note with it: oral; paw volume three hours after carrageenan administration. As to the method:
The carrageenin footedema suppression test was conducted according to the method of Winter et al. (J. Pharm. Exp. Ther., Vol.141, 369 (1963)). The test samples suspended in Tween 80 were administered orally to SD rats (6 rats per 1 group) in an amount of 1 ml per 100 g of the body weight, while only the solvent was administered in the same manner as above as a control. One hour after the administration, 1% carrageenan physiological saline was injected subcutaneously to the rats in the plantar area of the right hind paw. Three hours after the carrageenan administration, the paw volumes were measured and the edematization rate (%) was calculated with Formula 1 and then edematization suppression rate (%) was calculated with Formula 2.
Edematization rate (%)=((paw volume after carrageenan injection- paw volume before carrageenan injection)/(paw volume before carrageenan injection)×100 Formula: 1
Edematization suppression rate (%)=((edematization rate of control-
edematization rate of test samples)/edematization rate of […]
Background: Carrageenan injected into the paw causes an acute inflammation.

Another test addresses T2, Human COX-1 (Homo sapiens, UniProt P23219).
T2 construct: endogenous in cells; host or cells: whole blood of a healthy human donor (own knowledge: TXB2 of clotting blood comes from platelet COX-1)
Briefly: Human COX-1 Inhibitory Activity Test (TXB2 in blood). Format: cell-based. The note with it: IC50 from Hill Plot. The protocol:
as §1
(1) COX-1 activity was measured in the following procedure. […] The serum obtained by 10 minutes of centrifugation at 2000 rpm at 4° C. was stored at -40° C. until the measurement of the amount of thromboxane B2 (TXB2). The test samples, which had been dissolved in ethanol and diluted to the specified concentrations, were previously dispensed into the glass test tubes, and the solvent was evaporated to dryness by Centrifugal Vaporizer (CVE-200D, manufactured by Tokyo Rika Mfg. Co., Ltd.) so that the test samples were added to the plasma.
(3) The measurement for the TXB2 content was conducted in the following procedure. In a part of a 96 well plate coated with anti-rabbit IgG antibody, 2 wells were allotted respectively to blank well, Non-specific Binding (NSB) well, Maximum Binding (B0) well, standard wells at 7 concentrations of TXB2 (1000 pg/ml) in doubling dilution ranging from 1000-15.6 pg/ml. The rest of the wells were used for the measurement of the samples. EIA buffer was added to the NSB wells (100 μl ) and B0 wells (50 μl), respectively. 50 μl of each of the standard dilution was added in an order from thinner to thicker concentrations. Each of the samples was added to the rest of the wells in an amount of 50 μl. Then, 50 μl of TXB2 tracer was added to each of the wells except for the blank wells. Further, 50 μl of TXB2 antibody was added to each of the wells except for the NSB wells and blank wells, then the well plate was covered with a plastic film and the reaction continued for 18 hours at room temperature. When the reaction was terminated, the wells were washed 5 times with a wash buffer. 200 μl of Elman's reagent was added to each of the wells and then the well plate was covered with a plastic film and developed for 60 minutes in a dark place. The absorbance at 405 nm was measured by an Immuno Reader (NJ-2000, manufactured by Nippon Intermed Co., Ltd.). From the measurement result, %B/B0 was calculated and, applying it to the approximation formula of Hill Plot, the concentration of the samples was determined to be 2,000 times concentration. […]

Test [2] addresses T1, Human COX-2. The note with it: ratio of IC50 COX-1 to COX-2; cited from earlier work.

The structures appear in SMILES notation.

In general, IC50 refers to the concentration that gives 50% inhibition.

T2 sequence (P23219 24-599): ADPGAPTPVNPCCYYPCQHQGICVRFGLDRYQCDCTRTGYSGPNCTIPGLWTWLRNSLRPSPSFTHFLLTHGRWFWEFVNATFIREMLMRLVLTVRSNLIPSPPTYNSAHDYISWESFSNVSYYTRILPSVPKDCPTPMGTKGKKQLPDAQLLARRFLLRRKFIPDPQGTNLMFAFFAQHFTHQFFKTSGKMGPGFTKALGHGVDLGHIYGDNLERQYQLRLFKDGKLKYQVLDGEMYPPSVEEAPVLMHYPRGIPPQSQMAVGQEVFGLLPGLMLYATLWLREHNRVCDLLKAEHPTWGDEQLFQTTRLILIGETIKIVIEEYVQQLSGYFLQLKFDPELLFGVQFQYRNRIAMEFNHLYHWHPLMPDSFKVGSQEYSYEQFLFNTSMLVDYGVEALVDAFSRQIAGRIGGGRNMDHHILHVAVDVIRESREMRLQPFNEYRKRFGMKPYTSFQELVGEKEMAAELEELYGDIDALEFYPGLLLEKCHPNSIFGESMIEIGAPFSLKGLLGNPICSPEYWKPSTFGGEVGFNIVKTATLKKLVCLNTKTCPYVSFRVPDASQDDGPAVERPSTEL

`Cc1cc(-c2ccc3c(ccn3C)c2)c(-c2ccc(S(C)(=O)=O)cc2)[nH]1` [Preparation Example 37, 4-(5-N-methylindolyl)-2-methyl-5-(4-methylsulfonylphenyl)-1H-pyrrole]: the “Tumor Weight” value in the test with Sarcoma 180 solid tumor worked out at 0.906 g. For the same compound, the “cytostatic action” value with CaCo-2 cells (CaCo-2 cells, colon cancer cells) is “demonstrated a cytostatic action with respect to CaCo-2 cells”. The IC50 was 950 nM in the test with CaCo-2 cells (Homo sapiens, CaCo-2, 72 hours, XTT method, read-out: Cytostatic rate (IC50)) and 140 nM against Human COX-2 [1] (human blood, LPS, PGE2, IC50 from Hill Plot). Further, the COX-1/COX-2 at Human COX-2 [1] (ratio of IC50 COX-1 to COX-2) is recorded as over 714. For the same compound, the “Edematization Suppression rate” value in the test on carrageenan footedema stood at 26.5%.
Turning to `CS(=O)(=O)c1ccc(-c2[nH]ccc2-c2ccc(F)cc2)cc1` [Control compound (b), 4-(4-fluorophenyl)-5-(4-methylsulfonylphenyl)-1H-pyrrole, reference compound], the “Edematization Suppression rate” value in the test on carrageenan footedema is -1.8%. For the same compound, inhibition against Human COX-1 was half-maximal at 373000 nM (IC50). The “COX-1/COX-2 (value specified in the literature)” value on Human COX-2 [2] is recorded as 29.4.

The record behind these values is patent US6294568A, “5-arylpyrrole derivatives” (priority 1997, dated 2001).
